Results: patent US12692235B2, “Fused ring compound and application thereof” (WUHAN LL SCIENCE AND TECHNOLOGY DEVELOPMENT CO., LTD., priority 2019, dated 2026)

Experiments:
[1] = tested on: Male Dunkin Hartley guinea pigs; experiment: Simple citric acid cough model; type: in vivo; settings: guinea pig; for Average cough times: 17.5% citric acid
Experimental: Male Dunkin Hartley guinea pigs (300-350 g) were placed in an animal atomization box, and then the door of the atomization box was closed while the ultrasonic atomizer (Guangdong Yuehua) was turned on. 17.5% citric acid gas was introduced into the atomization box at a maximum atomization rate (about 2 mL/min) for 20 s, and coughs of the animals within 10 min were continuously observed from the time of the start of atomization. During the 10-min observation, coughs of the animals needed to be counted manually, and the number of coughs were judged according to cough postures of the guinea pigs, such as abdominal twitching, mouth opening, and head inclining downward abruptly. The number of coughs during the first 5 min and that during 10 min were recorded, and the cough latency of the guinea pigs, namely the time from the initiation of citric acid induction to the appearance of the 1st cough, was also recorded.

[2] = biological target: T1, hP2X4 (human purinergic P2X receptor subtype 4) (Homo sapiens, UniProt Q99571); settings: P2X4 IC50 (nM), HEK293 cells stably expressing hP2X4; agonist BZ-ATP 2.5 μM; FLIPR calcium
T1 sequence (Q99571 1-404 isoform Q99571-2): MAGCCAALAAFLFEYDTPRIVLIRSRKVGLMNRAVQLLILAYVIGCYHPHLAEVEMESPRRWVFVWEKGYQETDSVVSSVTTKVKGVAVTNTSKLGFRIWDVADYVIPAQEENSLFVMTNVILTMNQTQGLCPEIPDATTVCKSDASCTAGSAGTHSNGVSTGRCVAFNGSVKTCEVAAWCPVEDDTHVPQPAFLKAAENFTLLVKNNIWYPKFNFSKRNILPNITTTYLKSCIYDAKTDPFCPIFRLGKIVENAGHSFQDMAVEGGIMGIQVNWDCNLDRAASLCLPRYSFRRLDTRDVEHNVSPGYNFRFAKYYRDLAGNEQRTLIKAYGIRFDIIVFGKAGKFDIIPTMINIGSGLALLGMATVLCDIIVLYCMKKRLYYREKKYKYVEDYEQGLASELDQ
Experimental: Cells at 400,000 cells/mL were seeded into a 384-well plate (10,000 cells/well) 18-24 h prior to the FLIPR experiment and then incubated overnight in a cell incubator. […] Each well was added with 20 μL of 0.5×Calcium 6 fluorescent dye (Molecular Devices, R8190) and then the cells were subjected to dye-loading incubation at 37° C. for 1.5 h. Each well was added with 10 μL of respective test compound (dissolved in DMSO at a concentration of 10 mM and serially diluted with buffer) or vehicle and the mixture was equilibrated for 30 min at room temperature.

[3] = 60 mg/kg group, before administration
[4] = citric acid, 20 mg/kg and 60 mg/kg, dose-dependent, vs vehicle group or before administration

Structure (SMILES)	IC50 [2]	further results
COc1nccc2c(S(N)(=O)=O)cc(NC(=O)Cc3ccccc3Cl)cc12 [Compound 1, 2-(2-chlorophenyl)-N-(1-methoxy-5-sulfamoylisoquinolin-7-yl)acetamide]	< 10 nM	Average cough times ([1]; 20 mg/kg group, before administration): 19.00; Average cough times ([1]; 20 mg/kg, after administration): 11.22; Average cough times [1, 3]: 19.40; Average cough times ([1]; 60 mg/kg, after administration): 10.50; Average cough times ([1]; 100 mg/kg group, before administration): 19.90; Average cough times ([1]; 100 mg/kg, after administration): 8.60; Cough inhibition rate Vs basic value (%) ([1]; citric acid, 20 mg/kg): 40.94%; Cough inhibition rate Vs vehicle (%) ([1]; citric acid, 20 mg/kg): 38.41%; cough latency [1, 4]: prolong the cough latency; number of coughs [1, 4]: reduce the number of coughs; Cough inhibition rate Vs basic value (%) ([1]; citric acid, 60 mg/kg): 45.88%; Cough inhibition rate Vs vehicle (%) ([1]; citric acid, 60 mg/kg): 42.38%; drug effect compared with dextromethorphan at the same dosage ([1]; citric acid, 60 mg/kg): no significant difference in the drug effect compared with the positive compound dextromethorphan; Cough inhibition rate Vs basic value (%) ([1]; citric acid, 100 mg/kg): 56.78%; Cough inhibition rate Vs vehicle (%) ([1]; citric acid, 100 mg/kg): 52.80%
CC(C)OC(=O)N1CCc2c(cc(NC(=O)Cc3ccccc3Cl)cc2S(N)(=O)=O)C1 [Compound 100, isopropyl-7-(2-(2-chlorophenyl)acetamido)-5-sulfamoyl-3,4-dihydroisoquinoline-2(1H)-carboxylate]	10 to 50 nM	–
NS(=O)(=O)c1cc(NC(=O)Cc2ccccc2Cl)cc2c1CCN(C(=O)OC1CC1)C2 [Compound 101, cyclopropyl-7-(2-(2-chlorophenyl)acetamido)-5-sulfamoyl-3,4-dihydroisoquinoline-2(1H)-carboxylate]	10 to 50 nM	–
CC(=O)N1CCc2c(cc(NC(=O)Cc3ccccc3Cl)cc2S(N)(=O)=O)C1 [Compound 102, N-(2-acetyl-5-sulfamoyl-1,2,3,4-tetrahydroisoquinolin-7-yl)-2-(2-chlorophenyl)acetamide]	10 to 50 nM	–
NS(=O)(=O)c1cc(NC(=O)Cc2ccccc2Cl)cc2c1CCN(C1CC1)C2 [Compound 103, 2-(2-chlorophenyl)-N-(2-cyclopropyl-5-sulfamoyl-1,2,3,4-tetrahydroisoquinolin-7-yl)acetamide]	10 to 50 nM	–
NS(=O)(=O)c1cc(NC(=O)Cc2ccccc2Cl)cc2c1CCN(c1ccccc1)C2 [Compound 104, 2-(2-chlorophenyl)-N-(2-phenyl-5-sulfamoyl-1,2,3,4-tetrahydroisoquinolin-7-yl)acetamide]	50 to 200 nM	–
NS(=O)(=O)c1cc(NC(=O)Cc2ccccc2Cl)cc2c1CCN(C(=O)Oc1ccccc1)C2 [Compound 105, phenyl 7-(2-(2-chlorophenyl)acetamido)-5-sulfamoyl-3,4-dihydroisoquinoline-2(1H)-carboxylate]	50 to 200 nM	–
NS(=O)(=O)c1cc(NC(=O)Cc2ccccc2Cl)cc2c1CCN(C(=O)c1ccccc1)C2 [Compound 106, N-(2-benzoyl-5-sulfamoyl-1,2,3,4-tetrahydroisoquinolin-7-yl)-2-(2-chlorophenyl)acetamide]	10 to 50 nM	–
NS(=O)(=O)c1cc(NC(=O)Cc2ccccc2Cl)cc2c1CCN(C(=O)C1CCC1)C2 [Compound 107]	10 to 50 nM	–
NS(=O)(=O)c1cc(NC(=O)Cc2ccccc2Cl)cc2c1CCN(C(=O)C1CC1)C2 [Compound 108]	< 10 nM	–
CCN1CCc2c(cc(NC(=O)Cc3ccccc3Cl)cc2S(N)(=O)=O)C1 [Compound 109, 2-(2-chlorophenyl)-N-(2-ethyl-5-sulfamoyl-1,2,3,4-tetrahydroisoquinolin-7-yl)acetamide]	200 to 5000 nM	–
NS(=O)(=O)c1cc(NC(=O)Cc2ccccc2Cl)cc2c1CCN(Cc1ccccc1)C2 [Compound 110, N-(2-benzyl-5-sulfamoyl-1,2,3,4-tetrahydroisoquinolin-7-yl)-2-(2-chlorophenyl)acetamide]	200 to 5000 nM	–
NS(=O)(=O)c1cc(NC(=O)Cc2ccccc2Cl)cc2c1CCN(CC1CC1)C2 [Compound 111]	200 to 5000 nM	–
CN1CCc2c(cc(NC(=O)Cc3ccccc3Cl)cc2S(N)(=O)=O)C1 [Compound 112, 2-(2-chlorophenyl)-N-(2-methyl-5-sulfamoyl-1,2,3,4-tetrahydroisoquinolin-7-yl)acetamide]	10 to 50 nM	–
CC(C)N1CCc2c(cc(NC(=O)Cc3ccccc3Cl)cc2S(N)(=O)=O)C1 [Compound 113, 2-(2-chlorophenyl)-N-(2-isopropyl-5-sulfamoyl-1,2,3,4-tetrahydroisoquinolin-7-yl)acetamide]	50 to 200 nM	–
NS(=O)(=O)c1cc(NC(=O)Cc2ccccc2Cl)cc2c1CCN(C(=O)C(F)(F)F)C2 [Compound 114, 2-(2-chlorophenyl)-N-(5-sulfamoyl-2-(2,2,2-trifluoroacetyl)-1,2,3,4-tetrahydroisoquinolin-7-yl) acetamide]	10 to 50 nM	–
NS(=O)(=O)c1cc(NC(=O)Cc2ccccc2Cl)cc2c1CCN(C(Cl)Cl)C2 [Compound 115, 2-(2-chlorophenyl)-N-(2-(dichloromethyl)-sulfamoyl-1,2,3,4-tetrahydroisoquinolin-7-yl)acetamide]	200 to 5000 nM	–
NS(=O)(=O)c1cc(NC(=O)Cc2ccccc2Cl)cc2c1CCN(c1ccc(Cl)cn1)C2 [Compound 116, 2-(2-chlorophenyl)-N-(2-(5-chloropyridin-2-yl)-5-sulfamoyl-1,2,3,4-tetrahydroisoquinolin-7-yl)acetamide]	50 to 200 nM	–
NS(=O)(=O)c1cc(NC(=O)Cc2ccccc2Cl)cc2c1CCN(c1ccc(C(F)(F)F)cn1)C2 [Compound 117, 2-(2-chlorophenyl)-N-(5-sulfamoyl-2-(5-(trifluoromethyl)pyridin-2-yl)-1,2,3,4-tetrahydroisoquinolin-7-yl)acetamide]	10 to 50 nM	–
NS(=O)(=O)c1cc(NC(=O)Cc2ccccc2Cl)cc2c1CCN(c1cc(Cl)c(F)cn1)C2 [Compound 118, N-(2-(4-chloro-5-fluoropyridin-2-yl)-5-sulfamoyl-1,2,3,4-tetrahydroisoquinolin-7-yl)-2-(2-chlorophenyl)acetamide]	50 to 200 nM	–
C=CC(F)(F)N1CCc2c(cc(NC(=O)Cc3ccccc3Cl)cc2S(N)(=O)=O)C1 [Compound 119, 2-(2-chlorophenyl)-N-(2-(1,1-difluoroallyl)-5-sulfamoyl-1,2,3,4-tetrahydroisoquinolin-7-yl)acetamide]	200 to 5000 nM	–
NS(=O)(=O)c1cc(NC(=O)Cc2ccccc2Cl)cc2c1CCN(c1ccc(F)cc1)C2 [Compound 120, 2-(2-chlorophenyl)-N-(2-(4-fluorophenyl)-5-sulfamoyl-1,2,3,4-tetrahydroisoquinolin-7-yl)acetamide]	50 to 200 nM	–
Cc1ccc(N2CCc3c(cc(NC(=O)Cc4ccccc4Cl)cc3S(N)(=O)=O)C2)nc1 [Compound 121, 2-(2-chlorophenyl)-N-(2-(5-methylpyridin-2-yl)-5-sulfamoyl-1,2,3,4-tetrahydroisoquinoline-7-yl)acetamide]	50 to 200 nM	–
NS(=O)(=O)c1cc(NC(=O)Cc2ccc(F)cc2Cl)cc2c1CCN(c1ccc(F)cn1)C2 [Compound 122]	200 to 5000 nM	–
NS(=O)(=O)c1cc(NC(=O)Cc2ccccc2Cl)cc2c1CCN(C1COC1)C2 [Compound 123, 2-(2-chlorophenyl)-N-(2-(oxetan-3-yl)-5-sulfamoyl-1,2,3,4-tetrahydroisoquinolin-7-yl)acetamide]	200 to 5000 nM	–
COc1ccc2c(c1)[C@]13CCCC[C@@H]1[C@H](C2)N(C)CC3 [Dextromethorphan, dextromethorphan, reference compound]	–	Average cough times [1, 3]: 19.70; Average cough times ([1]; 60 mg/kg, after administration): 11.20; Cough inhibition rate Vs basic value (%) ([1]; citric acid, 60 mg/kg): 43.15%; Cough inhibition rate Vs vehicle (%) ([1]; citric acid, 60 mg/kg): 38.54%
COc1ccc(Nc2ccc3c(S(N)(=O)=O)cc(NC(=O)Cc4ccccc4Cl)cc3n2)cc1 [Trifluoroacetate of compound 71, 2-(2-chlorophenyl)-N-(2-((4-methoxyphenyl)amino)-5-sulfamoylquinolin-7-yl)acetamide]	200 to 5000 nM	–
